Columns and labels:
Aromatase [1] = target: T1, Aromatase (Homo sapiens, UniProt P11511); assay: Competitive inhibition of human aromatase extracted from placental microsomes after 10 mins by Lineweaver- Burk plots analysis in presence of [1beta-3H]androstenedione
T1 sequence (P11511 whole entry): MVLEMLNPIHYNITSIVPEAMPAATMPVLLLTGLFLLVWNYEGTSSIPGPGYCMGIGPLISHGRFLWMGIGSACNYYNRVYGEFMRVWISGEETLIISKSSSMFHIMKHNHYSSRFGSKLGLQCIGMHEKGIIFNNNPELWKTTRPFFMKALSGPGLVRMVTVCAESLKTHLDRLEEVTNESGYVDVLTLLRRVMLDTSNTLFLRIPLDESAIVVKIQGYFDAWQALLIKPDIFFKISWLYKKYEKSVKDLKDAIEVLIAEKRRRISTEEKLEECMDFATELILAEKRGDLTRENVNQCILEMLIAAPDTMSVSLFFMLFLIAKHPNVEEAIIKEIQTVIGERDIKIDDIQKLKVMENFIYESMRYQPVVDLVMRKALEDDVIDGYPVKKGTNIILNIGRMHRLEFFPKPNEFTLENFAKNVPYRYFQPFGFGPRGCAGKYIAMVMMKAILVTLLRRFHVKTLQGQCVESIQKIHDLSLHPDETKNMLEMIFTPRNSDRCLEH

Aromatase [2] = target: T1, Aromatase; assay: Inhibition of human aromatase extracted from placental microsomes using [1,2-3H]androstenedione as substrate after 30 mins by scintillation counting analysis
Aromatase [3] = target: T1, Aromatase; assay: Inhibition of human aromatase extracted from placental microsomes using 4-[14C]androstenedione as substrate at 0.25 to 1.25 uM after 15 mins
Aromatase [4] = target: T1, Aromatase; assay: Inhibition of human aromatase extracted from placental microsomes using [1beta-3H]androstenedione as substrate after 20 mins by radiometric assay
Aromatase [5] = target: T1, Aromatase
Aromatase [6] = target: T1, Aromatase; assay: Competitive inhibition of human aromatase extracted from placental microsomes by double reciprocal plot analysis in presence of 4-androstene-3,17-dione; settings: read-out: Ki(app)
Aromatase [7] = target: T1, Aromatase; assay: Inhibition of human aromatase after 30 mins by fluorescence assay
Aromatase [8] = target: T1, Aromatase; assay: Competitive inhibition of aromatase (unknown origin)
Aromatase [9] = target: T1, Aromatase; assay: Inhibition of human aromatase extracted from placental microsomes using [1beta-3H]AD as substrate by radiometric assay
Aromatase [10] = target: T1, Aromatase; assay: Competitive inhibition of human aromatase extracted from placental microsomes by Dixon plot analysis in presence of [1beta-3H]AD; settings: read-out: Ki
Aromatase [11] = target: T1, Aromatase; assay: Inhibition of human aromatase extracted from placental microsomes using [1beta-3H]androstenedione as substrate after 30 mins
Aromatase [12] = target: T1, Aromatase; assay: Inhibition of human aromatase extracted from placental microsomes using [1beta-3H]androstenedione as substrate at 10 to 500 nM after 30 mins; settings: 0.5 h
Aromatase [13] = target: T1, Aromatase; assay: Competitive inhibition of human aromatase extracted from placental microsomes by Lineweaver- Burk plots analysis in presence of 4-androstene-3,17-dione
Aromatase [14] = target: T1, Aromatase; remark: listed apart in the source
Aromatase [15] = target: T1, Aromatase; assay: Time dependent inactivation of human aromatase extracted from placental microsomes using [1-3H]androstenedione as substrate
Aromatase [16] = target: T2, Aromatase (Rattus norvegicus, UniProt P22443); assay: Inhibition of aromatase in denucleated ovarian fraction extracted from PMSG pretreated Wistar rat by using testosterone as substrate at 1 uM
T2 sequence (P22443 whole entry): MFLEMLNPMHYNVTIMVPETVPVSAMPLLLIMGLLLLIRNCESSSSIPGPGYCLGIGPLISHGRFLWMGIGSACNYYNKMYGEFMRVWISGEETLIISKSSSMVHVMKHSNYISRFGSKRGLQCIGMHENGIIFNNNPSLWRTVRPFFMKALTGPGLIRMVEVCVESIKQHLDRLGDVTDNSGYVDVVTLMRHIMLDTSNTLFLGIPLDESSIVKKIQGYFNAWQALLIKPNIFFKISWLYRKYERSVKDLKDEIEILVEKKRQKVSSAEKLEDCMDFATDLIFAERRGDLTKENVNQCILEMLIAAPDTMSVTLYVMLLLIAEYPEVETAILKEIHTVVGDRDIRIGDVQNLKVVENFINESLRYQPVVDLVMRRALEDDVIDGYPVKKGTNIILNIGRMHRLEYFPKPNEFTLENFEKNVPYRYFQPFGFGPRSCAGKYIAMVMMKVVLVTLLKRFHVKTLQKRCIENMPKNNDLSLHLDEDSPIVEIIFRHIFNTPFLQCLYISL

Aromatase [17] = target: T1, Aromatase; assay: Competitive inhibition of human aromatase extracted from placental microsomes by Dixon plot analysis in presence of [1beta-3H]androstenedione; settings: read-out: Ki

For `C[C@]12C=CC(=O)C(Sc3ccccc3)=C1C=C[C@@H]1[C@@H]2CC[C@]2(C)C(=O)CC[C@@H]12`, the Ki (Aromatase [1]) was 9.8 nM.

For `C[C@]12CCC(=O)C(Oc3ccccc3)=C1C[C@@H](Sc1ccccc1)[C@@H]1[C@@H]2CC[C@]2(C)C(=O)CC[C@@H]12`, the IC50 (Aromatase [2]) was 1650 nM.

Work on `C[C@]12CC[C@H]3[C@@H](CCC4=CC(=O)CC[C@@]43N=C=O)[C@@H]1CCC2=O` yielded an INH (Aromatase [3]) of under 20%.

With `C[C@]12C=C(CCCc3ccccc3)C(=O)C=C1CC[C@@H]1[C@@H]2CC[C@]2(C)C(=O)CC[C@@H]12` the IC50 (Aromatase [4]) was 140 nM and the Ki (Aromatase [5]) was 16.1 nM.

Work on `C[C@]12C=CC(=O)C=C1C[C@@H](Sc1ccc3ccccc3c1)[C@@H]1[C@@H]2CC[C@]2(C)C(=O)CC[C@@H]12` yielded a Ki (Aromatase [6]) of 12 nM.

`COc1ccc([C@@H]2[C@H]3C[C@H]4[C@@H]5CCC6=CC(=O)C=C[C@]6(C)[C@H]5CC[C@]4(C)C3=NN2c2ccccc2)cc1` was tested, and the IC50 (Aromatase [7]) was 1820 nM.

Work on `C[C@]1(CC#N)CC[C@H]2[C@@H](CCC3=CC(=O)CC[C@@]32C)[C@@H]1CC#N` yielded a Ki (Aromatase [8]) of 10000 nM.

`C[C@]12C=CC(=O)C=C1CC[C@@H]1[C@@H]2CC[C@]2(C)C3=NN(c4ccccc4)[C@H](c4ccccc4)[C@H]3C[C@@H]12` gave an IC50 (Aromatase [7]) of 1820 nM.

`C=C1C[C@@]2(C)C(=CC1=O)CC[C@@H]1[C@@H]2CC[C@]2(C)C(=O)CC[C@@H]12` was tested, and the IC50 (Aromatase [9]) was 550 nM and the Ki (Aromatase [10]) was 68 nM.

`C[C@]12CCC(=O)C(Sc3ccccc3)=C1C=C[C@@H]1[C@@H]2CC[C@]2(C)C(=O)CC[C@@H]12` gave a Ki (Aromatase [1]) of 9.8 nM.

`C[C@]12CC[C@H]3[C@@H](CC=C4[C@H]5CSC[C@]43CCC5=O)[C@@H]1CCC2=O` gave a Ki (Aromatase [8]) of 10000 nM.

With `C[C@]12CC[C@H]3[C@@H](Cc4noc5c4[C@]3(C)CCC5=O)[C@@H]1CC[C@@H]2O` the IC50 (Aromatase [11]) was 18600 nM and the “inhibition (INH)” value (Aromatase [12]) was 50%.

`C=CC1OC2(O)CC[C@]13C(=CC[C@@H]1[C@@H]3CC[C@]3(C)C(=O)CC[C@@H]13)C2` (stereo partly specified) gave a Ki (Aromatase [8]) of 10000 nM.

`C[C@]12CCC(=O)C=C1C[C@@H](Sc1ccc3ccccc3c1)[C@@H]1[C@@H]2CC[C@]2(C)C(=O)CC[C@@H]12` showed a Ki (Aromatase [13]) of 24.1 nM.

In the case of `C[C@]12CC[C@H]3[C@@H](Cc4noc5c4[C@]3(C)CC[C@@H]5O)[C@@H]1CC[C@@H]2O`, the IC50 (Aromatase [11]) is reported as 120000 nM and the “inhibition (INH)” value (Aromatase [12]) is reported as 50%.

Molecule `C[C@]12C=CC(=O)C=C1C[C@@H](Sc1cccc3ccccc13)[C@@H]1[C@@H]2CC[C@]2(C)C(=O)CC[C@@H]12` has a Ki (Aromatase [6]) of 12 nM.

`COc1ccc([C@@H]2[C@H]3C[C@H]4[C@@H]5CCC6=CC(=O)C=C[C@]6(C)[C@H]5CC[C@]4(C)C3=NN2C)cc1` was tested, and the IC50 (Aromatase [7]) was 1820 nM.

`C[C@]12CC[C@H]3[C@@H](CCC4=CC(=O)C=C[C@@]43C)[C@@H]1CC[C@@H]2O` was tested, and the Ki (Aromatase [14]) was 260 nM.

`C[C@]12CC[C@H]3[C@@H](CCC4=CC(=O)[C@H]5COC[C@]43C5)[C@@H]1CCC2=O` showed a Ki (Aromatase [15]) of 17.6 nM.

`C[C@]12C=CC(=O)C(Sc3ccccc3)=C1CC[C@@H]1[C@@H]2CC[C@]2(C)C(=O)CC[C@@H]12` was tested, and the Ki (Aromatase [1]) was 9.8 nM.

`C[C@]12CCC(=O)C(Oc3ccccc3)=C1CC[C@@H]1[C@@H]2CC[C@]2(C)C(=O)CC[C@@H]12` gave an IC50 (Aromatase [2]) of 530 nM.

Work on `C[C@@H]1OC(=O)C[C@H]2[C@@H]3CCC4=C(O)C(=O)CC[C@]4(C)[C@H]3CC[C@]12C` yielded an inhibition at 1 µM (Aromatase [16]) of 23.3%.

In the case of `CC(=O)O[C@@H]1C=C2C(=O)C[C@@H]3[C@H](CC[C@]4(C)C(=O)CC[C@@H]34)[C@@]2(C)CC1`, the IC50 (Aromatase [4]) is reported as 1700 nM and the Ki (Aromatase [17]) is reported as 5500 nM.

Molecule `C[C@]12CC[C@H]3[C@@H](CCC4=CC(=O)CC[C@@]43CN=[N+]=[N-])[C@@H]1CCC2=O` has a Ki (Aromatase [8]) of 5 nM.

For `C[C@]12CCC(=O)c3onc(c31)C[C@@H]1[C@@H]2CC[C@]2(C)C(=O)CC[C@@H]12`, the IC50 (Aromatase [11]) was 1890 nM and the “inhibition (INH)” value (Aromatase [12]) was 50%.
